# Tests used:
# [1] = Chain conformation / helicity by circular dichroism (CD) spectroscopy; format: physicochemical; details: 20° C.
# Description: For M60 (SEQ ID NO: 1), no data are presented below 204 nm due to solvent absorption that prohibits data collection. 31 found to be 85% α-helical. All CD spectra recorded at 0.5 mg/ml, 20° C. Figure discloses “C^H60” as SEQ ID NO: 2.
# (§1) FIGS. 7A and 7B show CD Spectra and heating curves of exemplary OEG-Hcy derivatives.
# Heating or cooling rate: 1° C./min, transmittance recorded at 500 nm. […] (label: 20° C.*).
# All data were recorded in H2O at 0.5 mg/mL, 20° C. For 5b no data were recorded below 198 nm due to sulfoxide absorption.
# [2] = Cloud point temperature (Tcp) by transmittance while heating; format: physicochemical; details: for Tcp (° C.): polymer 3.0 mg/mL in H2O, heated 1° C./min, temperature of 50% transmittance at 500 nm, —a = no Tcp detected, fully soluble 20 to 80° C., NA^b = insoluble in H2O down to 5° C.
# Description: as §1
# The incorporation of precise side-chain structural modifications, enabled systematic study of the effects of different functionalities on the properties of the materials. […] Cloud point temperatures (Tcp) were determined at 50% transmittance by monitoring solution transmittance as a function of temperature, and were used to approximate the equilibrium LCST values. Since chain length variation and polymer concentration are well known to affect Tcp values, all samples were identical in length, being prepared from the same stock of M60 (SEQ ID NO: 1).
substance,measurement,setting,value
Poly(S-(3-(2-acetoxyethoxy)-2-hydroxypropyl)-L-homocysteine) [Sample 2c],water solubility (in words),Solubility in water,water insoluble
"Poly(S-(2-hydroxy-4,7-dioxaoctyl)-L-homocysteine sulfoxide) [Sample 5a]",water solubility (in words),Solubility in water,good solubility
same,chain conformation,"[1]; CD in water, 0.5 mg/mL",disordered conformation
same,"Tcp / LCST in water, present or not",[2],neither polymer has a LCST
Poly(S-(3-(2-hydroxyethoxy)-2-hydroxypropyl)-L-homocysteine) [Sample 2a],water solubility (in words),Solubility in water,fully water soluble
"Poly(S-(2-hydroxy-4,7-dioxaoctyl)-L-homocysteine sulfone) [Sample 5b]",water solubility (in words),Solubility in water,good solubility
same,chain conformation,"[1]; CD in water, 0.5 mg/mL",α-helical conformation
same,α-helical (%),"[1]; CD in water, 0.5 mg/mL",86%
same,"Tcp / LCST in water, present or not",[2],neither polymer has a LCST
"Poly(S-(2-acetoxy-4,7,10,13-tetraoxatetradecyl)-L-homocysteine) [Sample 3a]",Tcp (° C.),[2],39 °C
"Poly(L-methionine)60 [Sample M60, reference compound]",water solubility (in words),Solubility in water,water-insoluble
same,chain conformation,"[1]; CD in THF, 0.5 mg/ml",helical
Poly(S-(3-(2-methoxyethoxy)-2-hydroxypropyl)-DL-homocysteine) [rac-2b],water solubility (in words),Solubility in water,fully water soluble
"Poly(S-(2-(((2-methoxyethoxy)carbonyl)oxy)-4,7,10,13-tetraoxatetradecyl)-L-homocysteine) [Sample 3b]",Tcp (° C.),[2],41 °C
